{"source": "PubChem BioAssay AID1259409", "about": "(Chemical Carcinogenesis Research Information System (CCRIS), 2018)", "origin": "cited, not measured here", "tested_on": "rodent chemically induced tumor inhibition, incidence and multiplicity", "test": "CCRIS tumor inhibitor studies", "note": "Where a SMILES comes first, the peptide text is derived from it.", "data": [{"smiles": "CC(C)NCC(O)COc1cccc2ccccc12", "note": "(stereo unspecified)", "values": [{"measurement": "tumour outcome (control, treated, inhibition, significance)", "setting": "Carcinogen: 4-(METHYLNITROSAMINO)-1-(3-PYRIDYL)-1-BUTANONE [64091-91-4], Dose [Inhibitor]: 3 MG/KG BW 3X/WK FOR 20 WK IMMEDIATELY PRIOR TO EACH CARCINOGEN DOSE (STUDY DURATION: 52 WK), Route [Inhibitor]: SUBCUTANEOUS, Species: HAMSTER, Strain/Sex: SYRIAN/MALE, Target Tissue: Type of Lesion: LUNG: TUMOR, Dose [Carcinogen]: 10 MG/KG BW 3X/WK FOR 20 WK (STUDY DURATION: 52 WK), Promoter: NONE", "value": "12/15 (80.0%), 6/15 (40%), 50%, not calculated"}, {"measurement": "tumour outcome (control, treated, inhibition, significance)", "setting": "Carcinogen: 4-(METHYLNITROSAMINO)-1-(3-PYRIDYL)-1-BUTANONE [64091-91-4], Dose [Inhibitor]: 3 MG/KG BW 3X/WK FOR 20 WK IMMEDIATELY PRIOR TO EACH CARCINOGEN DOSE (STUDY DURATION: 52 WK), Route [Inhibitor]: SUBCUTANEOUS, Species: HAMSTER, Strain/Sex: SYRIAN/MALE, Target Tissue: Type of Lesion: NASAL CAVITY: TUMOR, Dose [Carcinogen]: 10 MG/KG BW 3X/WK FOR 20 WK (STUDY DURATION: 52 WK), Promoter: NONE", "value": "4/15 (26.7%), 4/15 (26.7%), 0%, not calculated"}, {"measurement": "outcome", "setting": "Carcinogen: 4-(Methylnitrosamino)-1-(3-pyridyl)-1-butanone, Dose [Inhibitor]: 0.3 mg/100 g bw, 5 x a wk from offspring age of 4 wks-8 mo., Route [Inhibitor]: Subcutaneous injection, Species: Hamster, Strain/Sex: Syrian golden, male and female offspring, Target Tissue: Type of Lesion: Pancreas: Tumor (in offspring), Dose [Carcinogen]: 50 mg/kg once to dams on day 15 of pregnancy, Promoter: Ethanol", "value": "66.6%, 8.3%"}, {"measurement": "tumour outcome (control, treated, inhibition, significance)", "setting": "Carcinogen: N-METHYL-N'-NITRO-N-NITROSOGUANIDINE, 70-25-7, Dose [Inhibitor]: 0, 5 MG/KG IN OLIVE OIL SUSPENSION 1/D BEGINNING 1 WK POST LAST CARCINOGEN DOSE AND CONTINUING FOR DURATION OF STUDY (ST, Species: RAT, Strain/Sex: WISTAR/MALE, Target Tissue: Type of Lesion: GLANDULAR STOMACH: ADENOCARCINOMA, Dose [Carcinogen]: 50 UG/ML IN DRINKING WATER FOR 25 WK, Promoter: NONE USED", "value": "15/18 (83%), 11/20 (55%), 34%, not calculated"}]}, {"smiles": "C=C1CC[C@H](O)C/C1=C/C=C1\\CCC[C@]2(C)[C@@H]([C@H](C)CCCC(C)C)CC[C@@H]12", "values": [{"measurement": "tumour outcome (control, treated, inhibition, significance)", "setting": "Carcinogen: N-BUTYL-N-(4-HYDROXYBUTYL)NITROSAMINE, 3817-11-6, Dose [Inhibitor]: 0.002% DIET DAILY FOR 7 WK FOLLOWED BY 1 WK OF NO TREATMENT THEN 5 WK OF 0.001% DIET DAILY AND NO FURTHER TREATMENT THRO, Route [Inhibitor]: ORAL, Species: RAT, Strain/Sex: F344/MALE, Target Tissue: Type of Lesion: URINARY BLADDER: PAPILLOMA, Dose [Carcinogen]: 0.01% IN DRINKING WATER FOR 4 WK, Promoter: NONE USED", "value": "33%, 41%, -24%, not significant"}, {"measurement": "tumour outcome (control, treated, inhibition, significance)", "setting": "Carcinogen: N-METHYL-N-NITROSOUREA, 684-93-5, Dose [Inhibitor]: 0, 3.3 UG/KG OF DIET FOR 147 D (STUDY DURATION: 150 D), Route [Inhibitor]: ORAL, Species: RAT, Strain/Sex: SPRAGUE-DAWLEY/FEMALE, Target Tissue: Type of Lesion: MAMMARY GLAND: ADENOCARCINOMA, Dose [Carcinogen]: 50 MG/KG BW ONCE 3 D BEFORE INITIAL INHIBITOR DOSE, Promoter: NONE USED", "value": "25/25 (100%), 25/25 (100%), 0%, not significant"}, {"measurement": "tumour outcome (control, treated, inhibition, significance)", "setting": "Carcinogen: N-METHYL-N-NITROSOUREA, 684-93-5, Dose [Inhibitor]: 0, 10 UG/KG OF DIET FOR 147 D (STUDY DURATION: 150 D), Route [Inhibitor]: ORAL, Species: RAT, Strain/Sex: SPRAGUE-DAWLEY/FEMALE, Target Tissue: Type of Lesion: MAMMARY GLAND: ADENOCARCINOMA, Dose [Carcinogen]: 50 MG/KG BW ONCE 3 D BEFORE INITIAL INHIBITOR DOSE, Promoter: NONE USED", "value": "25/25 (100%), 25/25 (100%), 0%, not significant"}]}, {"smiles": "NCCCC[C@H](N)C(=O)N[C@@H](CCC(=O)O)C(=O)O", "note": "(H-Lys-Glu-OH)", "values": [{"measurement": "tumour outcome (control, treated, inhibition, significance)", "setting": "Carcinogen: N-BUTYL-N-(4-HYDROXYBUTYL)NITROSAMINE, 3817-11-6, Dose [Inhibitor]: 0, 30 UG/ANIMAL IN RIGHT THIGH DOES OF 1 UG/KG BW 1/D FOR 5 D WITH 4 WK INTERVALS FOR 6 MO (STUDY DURATION: 49 WK), Route [Inhibitor]: INTRAMUSCULAR, Species: RAT, Strain/Sex: ALBINO/MALE, Target Tissue: Type of Lesion: URINARY BLADDER: BENIGN TUMOR, Dose [Carcinogen]: 0.04% IN DRINKING WATER FOR FIRST 12 WK", "value": "13/49 (27%), 14/50 (28%), -4%, not calculated"}, {"measurement": "tumour outcome (control, treated, inhibition, significance)", "setting": "Carcinogen: N-BUTYL-N-(4-HYDROXYBUTYL)NITROSAMINE, 3817-11-6, Dose [Inhibitor]: 0, 30 UG/ANIMAL IN RIGHT THIGH DOES OF 1 UG/KG BW 1/D FOR 5 D WITH 4 WK INTERVALS FOR 6 MO (STUDY DURATION: 49 WK), Route [Inhibitor]: INTRAMUSCULAR, Species: RAT, Strain/Sex: ALBINO/MALE, Target Tissue: Type of Lesion: URINARY BLADDER: IN SITU CARCINOMA, Dose [Carcinogen]: 0.04% IN DRINKING WATER FOR FIRST 12 WK", "value": "11/49 (22%), 4/50 (8%), 64%, not calculated"}]}, {"smiles": "CCCCCCCCCCCCCCCC(=O)OCC1(O)CC23CC[C@@H]4c5ccoc5C=CC4(C)C2CCC1C3", "note": "(stereo partly specified)", "values": [{"measurement": "tumour outcome (control, treated, inhibition, significance)", "setting": "Carcinogen: 7,12-DIMETHYLBENZ[A]ANTHRACENE, 57-97-6, Dose [Inhibitor]: 0, 60 MG 1/D FOR 3 D BEGINNING 3 D PRIOR TO CARCINOGEN DOSE (STUDY DURATION: 20 WK), Route [Inhibitor]: GAVAGE, Species: RAT, Strain/Sex: SPRAGUE-DAWLEY/FEMALE, Target Tissue: Type of Lesion: MAMMARY GLAND: TUMOR, Dose [Carcinogen]: 12 MG IN 1 ML OLIVE OIL ONCE, Promoter: NONE USED", "value": "84%, 56%, 33%, p<0.05"}, {"measurement": "tumour outcome (control, treated, inhibition, significance)", "setting": "Carcinogen: 7,12-DIMETHYLBENZ[A]ANTHRACENE, 57-97-6, Dose [Inhibitor]: 0, 60 MG ONCE 4 HR PRIOR TO CARCINOGEN DOSE (STUDY DURATION: 20 WK), Route [Inhibitor]: GAVAGE, Species: RAT, Strain/Sex: SPRAGUE-DAWLEY/FEMALE, Target Tissue: Type of Lesion: MAMMARY GLAND: TUMOR, Dose [Carcinogen]: 12 MG IN 1 ML OLIVE OIL ONCE, Promoter: NONE USED", "value": "84%, 63%, 25%, p<0.05"}]}]}
